The target of data set [1] is Insulin-like growth factor 2 mRNA-binding protein 2 (Homo sapiens, UniProt Q9Y6M1). Kind of data set: Binding affinity to Histidine-tagged IMP-2 (unknown origin) assessed as dissociation constant by fluorescence polarization assay.
The nature of data set [2]: Cytotoxicity against human Huh-7 cells assessed as reduction in cell viability incubated for 24 hrs by MTT assay.
Data set [3] concerns the target T1, Insulin-like growth factor 2 mRNA-binding protein 1 (Homo sapiens, UniProt Q9NZI8). As to the kind of experiment: Binding affinity to human recombinant IGF2BP1 assessed as dissociation constant by SPR analysis. (In general: In SPR one partner is held on a chip, and binding of the other changes the refractive index at the surface.)
The subject of a further data set is THP-1. Kind of data set: Antiproliferative activity against human THP-1 cells assessed as reduction in cell growth incubated for 24 hrs by MTT assay. Conditions: THP-1, 24 h. On the technique in general: Tetrazolium dyes change colour on reduction, which living cells bring about.
A short description of data set [4]: Inhibition of full length IMP-1 (unknown origin) binding to fluorescein labeled 93 nucleotide c-Myc mRNA expressed in Escherichia coli BL21 (DE3) pLysS by FAMA method.
In another data set the test system is HL-60. As to the kind of experiment: Antiproliferative activity against human HL-60 cells assessed as reduction in cell viability incubated for 24 hrs by MTT assay. Conditions: HL-60, 24 h.
A further data set deals with K562. As to the kind of experiment: Antiproliferative activity against human K562 cells assessed as reduction in cell viability incubated for 24 hrs by MTT assay. Conditions: K562, 24 h.
For data set [5], the target named is T1, Insulin-like growth factor 2 mRNA-binding protein 1. As to the kind of experiment: Binding affinity to IGF2BP1 (unknown origin) assessed as dissociation constant by MST assay.
Another data set relates to NCI-H1299. Kind of data set: Antiproliferative activity against human NCI-H1299 cells assessed as reduction in cell growth incubated for 24 hrs by MTT assay. Conditions: NCI-H1299, 24 h.
Data set [6] has as its target T1, Insulin-like growth factor 2 mRNA-binding protein 1. Kind of data set: Inhibition of full length recombinant IGF2BP1 (unknown origin) by fluorescence polarization assay.

The results in this text go back to ChEMBL document CHEMBL5500327, “Targeting insulin-like growth factor 2 mRNA-binding proteins (IGF2BPs) for the treatment of cancer” (Eur J Med Chem, 2024).

T1 sequence (Q9NZI8 whole entry): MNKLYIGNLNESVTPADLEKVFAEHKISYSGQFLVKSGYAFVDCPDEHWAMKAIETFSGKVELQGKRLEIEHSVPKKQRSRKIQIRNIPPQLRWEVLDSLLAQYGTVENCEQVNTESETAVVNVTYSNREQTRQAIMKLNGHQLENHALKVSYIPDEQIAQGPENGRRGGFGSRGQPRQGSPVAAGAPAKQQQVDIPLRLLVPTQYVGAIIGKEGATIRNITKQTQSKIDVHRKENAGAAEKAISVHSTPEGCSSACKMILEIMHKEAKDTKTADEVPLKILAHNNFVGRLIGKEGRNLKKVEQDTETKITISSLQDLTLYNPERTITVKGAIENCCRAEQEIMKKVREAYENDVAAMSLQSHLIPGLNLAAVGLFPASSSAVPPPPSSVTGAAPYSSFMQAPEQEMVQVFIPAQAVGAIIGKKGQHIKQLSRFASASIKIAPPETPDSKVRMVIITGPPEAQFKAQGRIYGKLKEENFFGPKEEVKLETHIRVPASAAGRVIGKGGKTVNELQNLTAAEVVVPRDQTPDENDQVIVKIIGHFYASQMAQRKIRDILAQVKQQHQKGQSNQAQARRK
Chain of Insulin-like growth factor 2 mRNA-binding protein 2 (Q9Y6M1 whole entry): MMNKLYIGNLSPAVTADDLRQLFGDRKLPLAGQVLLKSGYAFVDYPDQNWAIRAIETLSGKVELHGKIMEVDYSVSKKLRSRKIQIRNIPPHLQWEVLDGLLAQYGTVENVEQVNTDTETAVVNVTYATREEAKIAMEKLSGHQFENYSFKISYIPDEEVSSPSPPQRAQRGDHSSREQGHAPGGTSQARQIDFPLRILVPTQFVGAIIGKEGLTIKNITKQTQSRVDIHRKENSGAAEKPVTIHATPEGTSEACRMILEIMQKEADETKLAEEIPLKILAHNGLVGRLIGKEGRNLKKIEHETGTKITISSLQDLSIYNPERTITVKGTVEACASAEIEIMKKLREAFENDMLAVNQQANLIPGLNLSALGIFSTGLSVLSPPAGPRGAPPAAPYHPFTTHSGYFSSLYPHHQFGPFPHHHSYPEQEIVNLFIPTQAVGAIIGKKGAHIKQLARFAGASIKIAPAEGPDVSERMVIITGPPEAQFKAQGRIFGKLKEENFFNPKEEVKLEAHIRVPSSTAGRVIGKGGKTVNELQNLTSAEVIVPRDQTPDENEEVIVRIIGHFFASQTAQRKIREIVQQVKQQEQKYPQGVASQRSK

By IC50 is commonly meant the concentration that inhibits the measured activity by half. Take `CCCN(CCc1ccccc1)C(=O)Nc1cc(-c2ccc(Cl)c(Cl)c2)sc1C(=O)O`: the half-maximal inhibitory concentration (IC50) in data set [1] was 65.3 µM.
Consider `CCN(Cc1ccccc1)C(=O)Nc1cc(-c2ccc(C(F)(F)F)cc2)sc1C(=O)O`, for which, in data set [1], the IC50 was found to be 121 µM.
Regarding `O=C(Nc1ccc(OC(F)(F)F)cc1C(=O)O)c1ccc(-c2ccccc2)cc1`, the IC50 in data set [1] was found to be 81.3 µM.
What is called Kd is the concentration at which binding is half-saturated. Regarding `CC(=O)OC(C)(C)/C=C/C(=O)[C@](C)(O)[C@H]1[C@H](O)C[C@@]2(C)[C@@H]3CC=C4[C@@H](C[C@H](O)C(=O)C4(C)C)[C@]3(C)C(=O)C[C@]12C`, the half-inhibitory concentration (IC50) at 24 h in data set [2] was found to be 4.1 µM. Besides, the Kd in data set [3] amounted to 1.2 µM.
Take `Oc1ccc(Cl)cc1/C=N\N/C(=N/N=C/c1cc(Cl)ccc1O)N/N=C/c1cc(Cl)ccc1O`: in the data set on THP-1, the IC50 is 0.2 µM.
Take `NC(=O)c1ccccc1/N=C/c1ccc(Br)s1`: the IC50 in [4] came to 5 µM; in the data set on HL-60 it was 21.6 µM; in the data set with K562, 6.76 µM.
On to `O=C(c1ccc(Cn2cc(CO)c3ccccc32)cc1)N1CCN(c2ccc3c(c2)OCO3)CC1`, for which the Kd in data set [5] worked out at 1.4 µM. Moreover, the half-inhibitory concentration (IC50) with NCI-H1299 is 0.8 µM.
With `O=C(c1ccc(-n2cnnn2)cc1)N1CCCC(Nc2ccc3c(c2)OCO3)C1` (configuration not stated), the IC50 in data set [6] came to 91.1 µM.
